# Like-named read-outs stand apart in the source and are kept apart here. Where a SMILES comes first, the peptide text is derived from it. Bridges are numbered along the chain shown (N, C = ends). [ ]: non-standard residue; d: D form. hPhe(3,5-F2-4-CF3) = N[C@@H](CCc1cc(F)c(C(F)(F)F)c(F)c1)C(=O)O; NPrPhe(4-CF3) = CCCN[C@@H](Cc1ccc(C(F)(F)F)cc1)C(=O)O; NMeGly(cPent) = CN[C@H](C(=O)O)C1CCCC1; αMeI = CC[C@H](C)[C@](C)(N)C(=O)O; NMeD = CN[C@@H](CC(=O)O)C(=O)O; NMeL = CN[C@@H](CC(C)C)C(=O)O; Sar = CNCC(=O)O
# Key:
# [1] = molecular target: GDP-bound NRAS wild-type protein (Homo sapiens, UniProt P01111); test: Binding to NRAS by surface plasmon resonance (SPR), Single Cycle Kinetics; conditions: SPR, GDP-bound NRAS wild-type protein vs GDP-bound KRAS wild-type protein
# Sequence of GDP-bound NRAS wild-type protein (P01111 whole entry): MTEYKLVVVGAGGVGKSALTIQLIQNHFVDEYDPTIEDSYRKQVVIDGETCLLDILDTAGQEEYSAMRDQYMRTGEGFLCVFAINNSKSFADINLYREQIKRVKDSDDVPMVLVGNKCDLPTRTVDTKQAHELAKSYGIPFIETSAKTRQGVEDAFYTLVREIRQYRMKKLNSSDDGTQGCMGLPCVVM
# [2] = molecular target: GDP-bound KRAS wild-type protein (Homo sapiens, UniProt P01116); test: Binding to KRAS by surface plasmon resonance (SPR), Single Cycle Kinetics; conditions: GDP-bound KRAS wild-type protein, read-out: KRAS KD
# Sequence of GDP-bound KRAS wild-type protein (P01116 whole entry): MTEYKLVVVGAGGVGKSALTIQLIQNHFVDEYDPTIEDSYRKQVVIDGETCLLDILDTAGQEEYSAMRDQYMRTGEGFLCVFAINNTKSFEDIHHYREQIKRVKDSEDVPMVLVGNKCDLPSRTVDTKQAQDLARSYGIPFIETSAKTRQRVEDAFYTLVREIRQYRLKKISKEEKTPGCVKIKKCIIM
# [3] = molecular target: GDP-bound HRAS wild-type protein (Homo sapiens, UniProt P01112); test: Binding to HRAS by surface plasmon resonance (SPR), Single Cycle Kinetics; conditions: SPR, GDP-bound HRAS wild-type protein vs GDP-bound KRAS wild-type protein
# Sequence of GDP-bound HRAS wild-type protein (P01112 whole entry): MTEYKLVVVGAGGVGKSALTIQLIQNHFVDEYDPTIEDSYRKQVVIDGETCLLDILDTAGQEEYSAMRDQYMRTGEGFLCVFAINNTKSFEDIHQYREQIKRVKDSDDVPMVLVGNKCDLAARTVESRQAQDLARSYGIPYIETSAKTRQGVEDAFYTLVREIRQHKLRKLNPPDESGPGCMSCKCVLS
SMILES,NRAS/KRAS (ratio of KD value for NRAS to KD value for KRAS) [1],"Kd ([2]; SPR, Single Cycle Kinetics) [nM]",HRAS/KRAS (ratio of KD value for HRAS to KD value for KRAS) [3],NRAS/KRAS (ratio of KD value with respect to NRAS to KD value with respect to KRAS) [1],"Kd ([2]; SPR Single Cycle Kinetics, 1:1 binding model) [nM]",HRAS/KRAS (ratio of KD value with respect to HRAS to KD value with respect to KRAS) [3]
CCO[C@@H]1C[C@H]2C(=O)NC3(CC(C)(C)C3)C(=O)N(C)[C@@H](C3CCCC3)C(=O)N(C)[C@H](C(=O)N(C)CC)CC(=O)N(C)[C@@H](C3CC3)C(=O)N[C@@H]([C@@H](C)CC)C(=O)N(C)CC(=O)N(C)[C@H]3C/C=C\CCN(C3=O)[C@@H](Cc3ccc(C(F)(F)F)cc3)C(=O)N(C)CC(=O)N[C@@H](CCc3cc(F)c(C(F)(F)F)c(F)c3)C(=O)N2C1 [PP2036],A (a compound having 10 or more and less than 20 is denoted as A),0.089,A (a compound having 10 or more and less than 20 is denoted as A),–,–,–
"CCO[C@@H]1C[C@H]2C(=O)NC3(CCC3)C(=O)N(C)[C@@H](C3CCCC3)C(=O)N(C)[C@H](C(=O)N(C)C)CC(=O)N(C)[C@@H](CC(F)(F)F)C(=O)N[C@@H]([C@@H](C)CC)C(=O)N(C)CC(=O)N(C)[C@H]3C/C=C\CCN(C3=O)[C@@H](Cc3ccc(C(F)(F)F)cc3)C(=O)N(C)CC(=O)N[C@@H](CCc3cc(F)c(C(F)(F)F)c(F)c3)C(=O)N2C1 [PP1124, (2S,8S,12R,14S,20S,23S,27S,30S,36S,38Z)-20-cyclopentyl-8-[2-[3,5-difluoro-4-(trifluoromethyl)phenyl]ethyl]-12-ethoxy-N,N,4,19,22,26,32,35-octamethyl-30-[(1S)-1-methylpropyl]-3,6,9,15,18,21,25,28,31,34,42-undecaoxo-27-(2,2,2-trifluoroethyl)-2-[[4-(trifluoromethyl)phenyl]methyl]spiro[1,4,7,10,16,19,22,26,29,32,35-undecazatricyclo[34.5.1.0^10,14]dotetracont-38-ene-17,1′-cyclobutane]-23-carboxamide]",A (a compound having 10 or more and less than 20 is denoted as A),0.056,B (a compound having 3 or more and less than 10 is denoted as B),–,–,–
"CCCN1C(=O)CN(C)C(=O)CN(C)C(=O)[C@H]([C@@H](C)CC)NC(=O)[C@H](CC(C)C)N(C)C(=O)C[C@@H](C(=O)N(C)C)N(C)C(=O)[C@H](C2CCCC2)N(C)C(=O)[C@](C)([C@@H](C)CC)NC(=O)[C@@H]2CCCN2C(=O)[C@H](CCc2cc(F)c(C(F)(F)F)c(F)c2)NC(=O)CN(C)C(=O)[C@@H]1Cc1ccc(C(F)(F)F)cc1 [PP0736] ([NMeL]I[Sar][Sar][NPrPhe(4-CF3)][Sar][hPhe(3,5-F2-4-CF3)]P[αMeI][NMeGly(cPent)][NMeD]-NMe2; lactam N-11)",–,–,–,B (a compound having 3 or more and less than 10 is denoted as B),1.8,C (A compound having a KD ratio of 0.1 or more and less than 3 is denoted as C)
CCC[C@H]1C(=O)N[C@@H]([C@@H](C)CC)C(=O)N(C)CC(=O)N(C)[C@H]2C/C=C\CCN(C2=O)[C@@H](CC2CCCCC2)C(=O)N(C)CC(=O)N[C@@H](CCc2ccc(C(F)(F)F)c(OC)c2)C(=O)N2C[C@H](OCC)C[C@H]2C(=O)N(C)C2(CCC2)C(=O)N(C)[C@@H](C2CCCC2)C(=O)N(C)[C@H](C(=O)N(C)C)CC(=O)N1C [PP2336],A (a compound having 10 or more and less than 20 is denoted as A),0.41,A (a compound having 10 or more and less than 20 is denoted as A),–,–,–
